pIC50: −log10 of the molar value.
Experiments:
[1] = biological target: His-BIR3 (241-356, XIAP) (Homo sapiens (Human), UniProt P98170); assay: XIAP-BIR3/SMAC Homogeneous Time Resolved Fluorescence (HTRF) Assay; type: binding; settings: fluorescein labeled SMAC peptide
Experimental: B. XIAP-BIR3/SMAC Homogeneous Time Resolved Fluorescence (HTRF) Assay
(§1) Assays were performed in black, flat-bottom, 384-well plates.

[2] = biological target: His-BIR2-3 (125-356, C202A/C213G, XIAP) (Homo sapiens (Human), UniProt P98170, C202A/C213G); assay: XIAP-BIR2-3 Dimeric SMAC Peptide Homogeneous Time Resolved Fluorescence (HTRF) Assay; type: binding; settings: fluorescein labeled dimeric SMAC peptide
Experimental: D. XIAP-BIR2-3 Dimeric SMAC Peptide Homogeneous Time Resolved Fluorescence (HTRF) Assay
as §1

Compound | pIC50 [1] | pIC50 [2]
CN[C@@H](C)C(=O)N[C@H](C(=O)N1C[C@@H](NC(=O)c2ccc(C(=O)Nc3ccc4c(c3)CN(C(=O)[C@@H](NC(=O)[C@H](C)NC)C(C)(C)SCC(=O)Nc3nccs3)[C@H](C(=O)N[C@@H]3CCCc5ccccc53)C4)cc2)C[C@H]1C(=O)N[C@@H]1CCCc2ccccc21)C(C)(C)C [Example 60, N^1-((3S,5S)-1-((S)-3,3-Dimethyl-2-((S)-2-(methylamino)propanamido)butanoyl)-5-(((R)-1,2,3,4-tetrahydronaphthalen-1-yl)carbamoyl)pyrrolidin-3-yl)-N^4-((S)-2-((R)-3-methyl-2-((S)-2-(methylamino)propanamido)-3-((2-oxo-2-(thiazol-2-ylamino)ethyl)thio)butanoyl)-3-(((R)-1,2,3,4-tetrahydronaphthalen-1-yl)carbamoyl)-1,2,3,4-tetrahydroisoquinolin-7-yl)terephthalamide] | 7.38 | 7.66
CN[C@@H](C)C(=O)N[C@H](C(=O)N1C[C@@H](NC(=O)c2ccc(C(=O)Nc3ccc4c(c3)CN(C(=O)[C@@H](NC(=O)[C@H](C)NC)C(C)(C)SCC(=O)N3CCOCC3)[C@H](C(=O)N[C@@H]3CCCc5ccccc53)C4)cc2)C[C@H]1C(=O)N[C@@H]1CCCc2ccccc21)C(C)(C)C [Example 61, N^1-((3S,5S)-1-((S)-3,3-Dimethyl-2-((S)-2-(methylamino)propanamido)butanoyl)-5-(((R)-1,2,3,4-tetrahydronaphthalen-1-yl)carbamoyl)pyrrolidin-3-yl)-N^4-((S)-2-((R)-3-methyl-2-((S)-2-(methylamino)propanamido)-3-((2-morpholino-2-oxoethyl)thio)butanoyl)-3-(((R)-1,2,3,4-tetrahydronaphthalen-1-yl)carbamoyl)-1,2,3,4-tetrahydroisoquinolin-7-yl)terephthalamide] | 7.51 | 7.80
CN[C@@H](C)C(=O)N[C@H](C(=O)N1C[C@@H](NC(=O)c2ccc(C(=O)Nc3ccc4c(c3)CN(C(=O)[C@@H](NC(=O)[C@H](C)NC)C(C)(C)SCC(=O)N(C)Cc3cccc(F)c3)[C@H](C(=O)N[C@@H]3CCCc5ccccc53)C4)cc2)C[C@H]1C(=O)N[C@@H]1CCCc2ccccc21)C(C)(C)C [Example 62, N^1-((3S,5S)-1-((S)-3,3-Dimethyl-2-((S)-2-(methylamino)propanamido)butanoyl)-5-(((R)-1,2,3,4-tetrahydronaphthalen-1-yl)carbamoyl)pyrrolidin-3-yl)-N^4-((S)-2-((R)-3-((2-((3-fluorobenzyl)(methyl)amino)-2-oxoethyl)thio)-3-methyl-2-((S)-2-(methylamino)propanamido)butanoyl)-3-(((R)-1,2,3,4-tetrahydronaphthalen-1-yl)carbamoyl)-1,2,3,4-tetrahydroisoquinolin-7-yl)terephthalamide] | 7.14 | 7.24
CN[C@@H](C)C(=O)N[C@H](C(=O)N1C[C@@H](NC(=O)c2ccc(C(=O)Nc3ccc4c(c3)CN(C(=O)[C@@H](NC(=O)[C@H](C)NC)C(C)(C)SCC(=O)NCCO)[C@H](C(=O)N[C@@H]3CCCc5ccccc53)C4)cc2)C[C@H]1C(=O)N[C@@H]1CCCc2ccccc21)C(C)(C)C [Example 63, N^1-((3S,5S)-1-((S)-3,3-Dimethyl-2-((S)-2-(methylamino)propanamido)butanoyl)-5-(((R)-1,2,3,4-tetrahydronaphthalen-1-yl)carbamoyl)pyrrolidin-3-yl)-N^4-((S)-2-((R)-3-((2-((2-hydroxyethyl)amino)-2-oxoethyl)thio)-3-methyl-2-((S)-2-(methylamino)propanamido)butanoyl)-3-(((R)-1,2,3,4-tetrahydronaphthalen-1-yl)carbamoyl)-1,2,3,4-tetrahydroisoquinolin-7-yl)terephthalamide] | 7.77 | 8.30
CN[C@@H](C)C(=O)N[C@H](C(=O)N1C[C@@H](NC(=O)c2ccc(C(=O)Nc3ccc4c(c3)CN(C(=O)[C@@H](NC(=O)[C@H](C)NC)C(C)(C)SCC(=O)N(C)C)[C@H](C(=O)N[C@@H]3CCCc5ccccc53)C4)cc2)C[C@H]1C(=O)N[C@@H]1CCCc2ccccc21)C(C)(C)C [Example 64, N^1-((3S,5S)-1-((S)-3,3-Dimethyl-2-((S)-2-(methylamino)propanamido)butanoyl)-5-(((R)-1,2,3,4-tetrahydronaphthalen-1-yl)carbamoyl)pyrrolidin-3-yl)-N^4-((S)-2-((R)-3-((2-(dimethylamino)-2-oxoethyl)thio)-3-methyl-2-((S)-2-(methylamino)propanamido)butanoyl)-3-(((R)-1,2,3,4-tetrahydronaphthalen-1-yl)carbamoyl)-1,2,3,4-tetrahydroisoquinolin-7-yl)terephthalamide] | 7.85 | 8.00
CN[C@@H](C)C(=O)N[C@H](C(=O)N1C[C@@H](NC(=O)c2ccc(C(=O)Nc3ccc4c(c3)CN(C(=O)[C@@H](NC(=O)[C@H](C)NC)C(C)(C)SCCO)[C@H](C(=O)N[C@@H]3CCCc5ccccc53)C4)cc2)C[C@H]1C(=O)N[C@@H]1CCCc2ccccc21)C(C)(C)C [Example 67, N^1-((3S,5S)-1-((S)-3,3-Dimethyl-2-((S)-2-(methylamino)propanamido)butanoyl)-5-(((R)-1,2,3,4-tetrahydronaphthalen-1-yl)carbamoyl)pyrrolidin-3-yl)-N^4-((S)-2-((R)-3-((2-hydroxyethyl)thio)-3-methyl-2-((S)-2-(methylamino)propanamido)butanoyl)-3-(((R)-1,2,3,4-tetrahydronaphthalen-1-yl)carbamoyl)-1,2,3,4-tetrahydroisoquinolin-7-yl)terephthalamide] | 7.85 | 8.22
CN[C@@H](C)C(=O)N[C@H](C(=O)N1C[C@@H](NC(=O)c2ccc(C(=O)Nc3ccc4c(c3)CN(C(=O)[C@@H](NC(=O)[C@H](C)NC)C(C)(C)SCc3ncc(C(C)(C)C)o3)[C@H](C(=O)N[C@@H]3CCCc5ccccc53)C4)cc2)C[C@H]1C(=O)N[C@@H]1CCCc2ccccc21)C(C)(C)C [Example 68, N^1-((S)-2-((R)-3-(((5-(tert-Butyl)oxazol-2-yl)methyl)thio)-3-methyl-2-((S)-2-(methylamino)propanamido)butanoyl)-3-(((R)-1,2,3,4-tetrahydronaphthalen-1-yl)carbamoyl)-1,2,3,4-tetrahydroisoquinolin-7-yl)-N^4-((3S,5S)-1-((S)-3,3-dimethyl-2-((S)-2-(methylamino)propanamido)butanoyl)-5-(((R)-1,2,3,4-tetrahydronaphthalen-1-yl)carbamoyl)pyrrolidin-3-yl)terephthalamide] | 6.59 | 6.80

Source: US9783573B2, “IAP antagonists” (BRISTOL-MYERS SQUIBB COMPANY, priority 2012, dated 2017)
